Here are results for one compound from patent US20040115236A1, “Devices and methods for management of inflammation” (priority 2000, published 2004).

Data set [1] is described as follows: solubility in sterile distilled water. It is filed as physicochemical. The following applies: thermodynamic from solid, read-out: maximum solubility. An excerpt:
Sodium cromoglycate may be delivered from an implanted pump without the use of a catheter. For example, a DUROS® osmotic pump could be used. […] The formulation of sodium cromoglycate may then be loaded into a DUROS® pump under aseptic conditions. The pump is implanted in a subject, for instance subcutaneously in the upper arm, under local anesthetic and the drug would be released therefrom into the body of the subject. [formula]

The conditions of data set [2]: cited from earlier work.
The test system of data set [3] is exercise-induced bronchoconstriction. As to conditions: inhaled administration, plasma concentrations of 4-6 ng/ml; cited from earlier work.

In general, solubility refers to the dissolved amount per volume that the medium holds. Regarding `O=C(O)c1cc(=O)c2c(OCC(O)COc3cccc4oc(C(=O)O)cc(=O)c34)cccc2o1` [sodium cromoglycate, Sodium cromoglycate], in data set [1], the solubility is around 120 mg/mL. Moreover, the “bioavailability, inhaled” value in data set [2] (inhaled) was 7.5%. Besides, the oral bioavailability entry in data set [2] (oral) was “less than 1%”. In addition, the “inhibition of exercise-induced bronchoconstriction” value in data set [3] is listed as 66%.
